The source of these data is article PMC11106739, “Discovery and Derivatization of Tridecaptin Antibiotics with Altered Host Specificity and Enhanced Bioactivity” (ACS Chemical Biology, 2024).

One experiment concerns E. faecium ATCC 51559. The class given is cell-based, Enterococcus faecium. The following applies: ATCC 51559, 20 h. Here is the method: (§1) All minimum inhibitory concentrations (MICs) were determined according to the Clinical and Standards Laboratory Institute (CLSI) guidelines. In brief, agar plates were inoculated from glycerol stocks and incubated overnight at 35 °C. Peptide DMSO stocks were dispensed into 96-well round-bottom plates using a TECAN D300e dispenser. Colistin sulfate (Sigma-Aldrich) was dissolved in water and serially diluted in a cation-adjusted Mueller Hinton broth (10 μL per well). Final concentrations of the test compounds were 0.06 to 64 μg/mL. Inocula were prepared by direct colony suspension in NaCl at 0.5 MacFarland, which was further diluted 200-fold in cation-adjusted Mueller Hinton broth for a target inoculum of 2 × 10^5 colony forming units (CFUs)/mL. 100 μL portion of the prepared inoculum was added to each well of the prepared plates containing the test compounds. Plates were sealed with parafilm and incubated for 20 h at 35 °C. Images of all plates were recorded, and MIC was assessed visually.

The next experiment concerns E. faecium IHMA 890472. The class given is cell-based, Enterococcus faecium. Particulars: IHMA 890472, 20 h. How it is done: as §1
The next experiment deals with Rabbit red blood cells. Nature of the experiment: Hemolysis assay. It counts as cell-based. Particulars: rabbit red blood cells in PBS, 37 °C, 1 h, absorbance at 405 nm, normalization to the Triton X-100 control; 0.25 to 128 μg/mL tested. Here is the method: Peptides, dissolved in DMSO, were dispensed into 96-well round-bottom microplates using a TECAN D300e dispenser and subsequently diluted with 100 μL of PBS. PBS or 2% Triton X-100 was used as negative and positive controls, respectively. Rabbit red blood cells (BioConcept) were diluted in PBS to a final concentration of 2%, and 100 μL was added to each well of the prepared 96-well plates. The final concentration of the test compounds was 0.25 to 128 μg/mL. Plates were incubated at 37 °C for 1 h and afterward subjected to centrifugation at 1000g for 5 min. Then, 30 μL of supernatant was transferred to a new round-bottom plate, and absorbance was measured at 405 nm (TECAN Infinite F200). EC50s were calculated after blank subtraction and normalization to the Triton control.

Experiment [1] relates to Gram-negative ESKAPE pathogens. The class given is cell-based. The following applies: 20 h. Here is the method:
as §1

In the next experiment the test system is HepG2 cells. Put plainly: Cytotoxicity determination (CellTiter-Glo). The class given is cell-based. Particulars: HepG2, medium without serum, 24 h, normalization to the untreated control, 1 to 128 μg/mL tested. How it is done:
HepG2 cells were grown in EMEM (Sigma) supplemented with 2 mM glutamine and 10% fetal bovine serum (Fisher) at 37 °C, 5% CO2. 20′000 cells per well were seeded into clear tissue culture-treated 96-well plates and incubated for 24 h. Peptides, dissolved in DMSO, were dispensed into 96 deep well plates (TECAN D300e dispenser) and diluted to a final concentration of 1 to 128 μg/mL using fresh medium without serum. The next day, the old media were removed from the cells, and 200 μL of the prepared compound dilutions was added per well. Plates were incubated for another 24 h before assessing the cell viability using the CellTiter-Glo kit (Promega) according to the manufacturer’s protocol. IC50s were calculated after normalization to the untreated control.
On the technique in general: ATP-based viability assays read luminescence as a measure of living cells.

The subject of another experiment is A. baumannii IHMA 777621. The class given is cell-based, Acinetobacter baumannii. The following applies: IHMA 777621, 20 h. How it is done: as §1
The test system of another experiment is A. baumannii HUMC1. It counts as cell-based, Acinetobacter baumannii. The following applies: HUMC1, 20 h. Here is the method: as §1
In the next experiment the test system is A. baumannii ATCC 17978. It counts as cell-based, Acinetobacter baumannii. The following applies: ATCC 17978, 20 h. Here is the method:
as §1

Another experiment deals with S. aureus ATCC 29213. It counts as cell-based, Staphylococcus aureus. Particulars: ATCC 29213, 20 h. Here is the method: as §1
For the next experiment, the system named is S. aureus UAMS-1625. The class given is cell-based, Staphylococcus aureus. The following applies: S. aureus UAMS-1625 (BV18); CLSI broth dilution, cation-adjusted Mueller Hinton broth, 20 h, 35 °C, read visually. How it is done: as §1
(In general: In broth dilution the organism is exposed to a series of concentrations in liquid medium.)

In the next experiment the test system is S. aureus 1126387. The class given is cell-based, Staphylococcus aureus. Particulars: 1126387, 20 h. How it is done:
as §1

Another experiment relates to P. aeruginosa 1226072. The class given is cell-based, Pseudomonas aeruginosa. Particulars: 1226072, 20 h. Here is the method: as §1
In the next experiment the test system is P. aeruginosa PAO1. The class given is cell-based, Pseudomonas aeruginosa. The following applies: PAO1, 20 h. How it is done:
as §1

For another experiment, the system named is P. aeruginosa 1218019. It counts as cell-based, Pseudomonas aeruginosa. Particulars: 1218019, 20 h. Here is the method:
as §1

The test system of experiment [2] is Gram-positive bacteria (Staphylococcus aureus, Enterococcus faecalis, Enterococcus faecium). Put plainly: MIC, summary over Gram-positive strains. The class given is cell-based. Particulars: at a concentration of 64 μg/mL; summary of Table 2. How it is done: as §1
The subject of the next experiment is E. coli ATCC 25922. The class given is cell-based, Escherichia coli. The following applies: ATCC 25922, 20 h. How it is done:
as §1

For another experiment, the system named is E. coli 1214245. The class given is cell-based, Escherichia coli. The following applies: 1214245, 20 h. Here is the method: as §1
A further experiment relates to E. coli 1220120. It counts as cell-based, Escherichia coli. The following applies: 1220120, 20 h. How it is done:
as §1

The next experiment concerns ATCC 25922. The class given is cell-based, Enterococcus faecalis. The following applies: ATCC 25922, 20 h. How it is done:
as §1

A further experiment concerns E. faecalis ATCC 29212. The class given is cell-based, Enterococcus faecalis. The following applies: ATCC 29212, 20 h. Here is the method: as §1
The test system of another experiment is K. pneumoniae 1227947. The class given is cell-based, Klebsiella pneumoniae. The following applies: 1227947, 20 h. Here is the method:
as §1

The next experiment deals with K. pneumoniae ATCC 13883. It counts as cell-based, Klebsiella pneumoniae. The following applies: ATCC 13883, 20 h. Here is the method: as §1
The next experiment relates to K. pneumoniae 1228586. The class given is cell-based, Klebsiella pneumoniae. The following applies: 1228586, 20 h. Here is the method:
as §1

In brackets after ≈: the same amount, converted by molar mass. Where a SMILES comes first, the peptide text is derived from it. [ ]: non-standard residue; d: D form. The star is where a group is joined. d(aIle) = CC[C@H](C)[C@@H](N)C(=O)O; dDab = NCC[C@@H](N)C(=O)O; Octanoyl = CCCCCCCC(=O)*; Dab = NCC[C@H](N)C(=O)O

By MIC is commonly meant the lowest concentration found to suppress growth. Take `CCCCCCCC(=O)N[C@@H](C(=O)N[C@H](CCN)C(=O)NCC(=O)N[C@H](CO)C(=O)N[C@H](Cc1c[nH]c2ccccc12)C(=O)N[C@@H](CO)C(=O)N[C@@H](CCN)C(=O)N[C@H](CCN)C(=O)NCC(=O)N[C@@H](CCC(=O)O)C(=O)N[C@H](C(=O)N[C@@H](C(=O)N[C@@H](C)C(=O)O)[C@@H](C)CC)C(C)C)C(C)C` [Oct-Gly9] (Octanoyl-[dV][dDab]G[dS][dW]S[Dab][dDab]GEV[d(aIle)]A-OH): the MIC against E. faecium ATCC 51559, against E. faecium IHMA 890472, in the experiment with A. baumannii IHMA 777621, with A. baumannii HUMC1, against A. baumannii ATCC 17978 and against S. aureus ATCC 29213 was greater than 64 µg/mL each time. For the same molecule, the MIC was greater than 64 µg/mL in the experiment on S. aureus UAMS-1625; greater than 64 µg/mL in the experiment on S. aureus 1126387; 32 µg/mL (≈ 22.4 µM) in the experiment with P. aeruginosa 1226072; 64 µg/mL (≈ 44.7 µM) with P. aeruginosa PAO1; greater than 64 µg/mL against P. aeruginosa 1218019; 16 µg/mL (≈ 11.2 µM) in the experiment with E. coli ATCC 25922. Besides, the minimum inhibitory concentration (MIC) in the experiment with E. coli 1214245 was 16 µg/mL (≈ 11.2 µM); in the experiment with E. coli 1220120, 16 µg/mL (≈ 11.2 µM); against ATCC 25922, greater than 64 µg/mL; in the experiment on E. faecalis ATCC 29212 it was greater than 64 µg/mL; against K. pneumoniae 1227947 it was 32 µg/mL (≈ 22.4 µM); with K. pneumoniae ATCC 13883, 16 µg/mL (≈ 11.2 µM). For the same molecule, the minimal inhibitory concentration (MIC) against K. pneumoniae 1228586 is 8 µg/mL (≈ 5.59 µM). Further, the “Hemolysis EC50” value in the experiment on Rabbit red blood cells is greater than 128 µg/mL. Further, the “MICs, range over Gram-negative pathogens” value in [1] lay in the range of 8 to 64 µg/mL. For the same molecule, the “IC50 on HepG2 w/o FCS” value in the experiment with HepG2 cells was greater than 128 µg/mL. For the same molecule, the “antibacterial activity against Gram-positive bacteria” value (“antibacterial activity” below) in experiment [2] is on record as “no antibacterial activity”.
As for `CCCCCCCC(=O)N[C@@H](C(=O)N[C@H](CCN)C(=O)NCC(=O)N[C@H](CO)C(=O)N[C@H](Cc1c[nH]c2ccccc12)C(=O)N[C@@H](CO)C(=O)N[C@@H](CCN)C(=O)N[C@H](CCN)C(=O)N[C@@H](CO)C(=O)N[C@@H](CCC(=O)O)C(=O)N[C@H](C(=O)N[C@@H](C(=O)N[C@@H](C)C(=O)O)[C@@H](C)CC)C(C)C)C(C)C` [Oct-Ser9] (Octanoyl-[dV][dDab]G[dS][dW]S[Dab][dDab]SEV[d(aIle)]A-OH), the MIC in the experiment on E. faecium ATCC 51559, in the experiment on E. faecium IHMA 890472, in the experiment on A. baumannii IHMA 777621, against A. baumannii HUMC1, against A. baumannii ATCC 17978 and with S. aureus ATCC 29213 was greater than 64 µg/mL each time. In addition, the MIC was greater than 64 µg/mL with S. aureus UAMS-1625; greater than 64 µg/mL in the experiment with S. aureus 1126387; 32 µg/mL (≈ 21.9 µM) against P. aeruginosa 1226072; greater than 64 µg/mL against P. aeruginosa PAO1; 32 µg/mL (≈ 21.9 µM) in the experiment with P. aeruginosa 1218019; 32 µg/mL (≈ 21.9 µM) with E. coli ATCC 25922. Further, the minimum inhibitory concentration (MIC) against E. coli 1214245 is 64 µg/mL (≈ 43.8 µM); with E. coli 1220120 it was 32 µg/mL (≈ 21.9 µM); in the experiment on ATCC 25922, greater than 64 µg/mL; in the experiment on E. faecalis ATCC 29212 it was greater than 64 µg/mL; with K. pneumoniae 1227947, greater than 64 µg/mL; in the experiment with K. pneumoniae ATCC 13883, 64 µg/mL (≈ 43.8 µM). This molecule yielded an MIC against K. pneumoniae 1228586 of 8 µg/mL (≈ 5.48 µM). In addition, the “Hemolysis EC50” value in the experiment with Rabbit red blood cells was greater than 128 µg/mL. The “MICs, range over Gram-negative pathogens” value in [1] is 8 to 64 µg/mL. For the same molecule, the “IC50 on HepG2 w/o FCS” value in the experiment on HepG2 cells was greater than 128 µg/mL. Moreover, the “antibacterial activity” value in [2] was “no antibacterial activity”.
On to `CCCCCCCC(=O)N[C@@H](C(=O)N[C@H](CCN)C(=O)NCC(=O)N[C@H](CO)C(=O)N[C@H](Cc1c[nH]c2ccccc12)C(=O)N[C@@H](CO)C(=O)N[C@@H](CCN)C(=O)N[C@H](CCN)C(=O)N[C@@H](CCN)C(=O)N[C@@H](CCC(=O)O)C(=O)N[C@H](C(=O)N[C@@H](C(=O)N[C@@H](C)C(=O)O)[C@@H](C)CC)C(C)C)C(C)C` [Oct-Dab9] (Octanoyl-[dV][dDab]G[dS][dW]S[Dab][dDab][Dab]EV[d(aIle)]A-OH), for which the MIC in the experiment on E. faecium ATCC 51559, in the experiment with E. faecium IHMA 890472, against A. baumannii IHMA 777621, against A. baumannii HUMC1, in the experiment with A. baumannii ATCC 17978 and in the experiment on S. aureus ATCC 29213 was greater than 64 µg/mL each time. Also, the MIC against S. aureus UAMS-1625 is greater than 64 µg/mL; in the experiment with S. aureus 1126387 it was greater than 64 µg/mL; with P. aeruginosa 1226072, 8 µg/mL (≈ 5.43 µM); in the experiment on P. aeruginosa PAO1, greater than 64 µg/mL; with P. aeruginosa 1218019 it was greater than 64 µg/mL; with E. coli ATCC 25922, greater than 64 µg/mL. For the same molecule, the MIC with E. coli 1214245, in the experiment with E. coli 1220120, against ATCC 25922, in the experiment on E. faecalis ATCC 29212, against K. pneumoniae 1227947 and against K. pneumoniae ATCC 13883 was greater than 64 µg/mL each time. The minimal inhibitory concentration (MIC) in the experiment on K. pneumoniae 1228586 is greater than 64 µg/mL. Besides, the “Hemolysis EC50” value with Rabbit red blood cells was greater than 128 µg/mL. For the same molecule, the “MICs, range over Gram-negative pathogens” value in [1] lay within 8 to 64 µg/mL. For the same molecule, in the experiment on HepG2 cells, the “IC50 on HepG2 w/o FCS” value is greater than 128 µg/mL. Also, the “antibacterial activity” value in [2] was “no antibacterial activity”.
